Reference: ChEMBL document CHEMBL3804831, “N-Acyl Dehydrotyrosines, Tyrosinase Inhibitors from the Marine Bacterium Thalassotalea sp. PP2-459” (J Nat Prod, 2016)
Calls of active or inactive are those of the source. No cut-off for these calls is given here.

Key:
[1] = target: T1, Tyrosinase (Agaricus bisporus, UniProt O42713)
T1 sequence (O42713 whole entry): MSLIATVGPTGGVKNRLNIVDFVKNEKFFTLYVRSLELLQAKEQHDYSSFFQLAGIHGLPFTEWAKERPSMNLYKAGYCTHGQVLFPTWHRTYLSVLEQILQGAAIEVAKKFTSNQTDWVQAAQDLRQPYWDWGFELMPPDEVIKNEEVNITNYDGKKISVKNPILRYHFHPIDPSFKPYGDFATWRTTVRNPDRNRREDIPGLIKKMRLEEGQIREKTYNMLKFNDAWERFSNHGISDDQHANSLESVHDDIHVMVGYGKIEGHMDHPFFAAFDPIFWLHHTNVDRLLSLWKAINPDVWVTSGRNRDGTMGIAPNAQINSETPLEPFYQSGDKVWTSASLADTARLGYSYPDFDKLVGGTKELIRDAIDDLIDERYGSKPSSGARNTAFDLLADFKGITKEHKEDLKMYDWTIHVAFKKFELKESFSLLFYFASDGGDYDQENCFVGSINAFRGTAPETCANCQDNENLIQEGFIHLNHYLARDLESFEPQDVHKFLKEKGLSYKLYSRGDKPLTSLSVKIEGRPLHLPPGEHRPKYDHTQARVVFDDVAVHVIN
Description: Inhibition of mushroom tyrosinase using L-tyrosine as a substrate after 30 mins by spectrophotometric method

[2] = target: T2, Tyrosinase (Agaricus bisporus) (UniProt O42713); test: Inhibition of mushroom tyrosinase at 1 mM using L-tyrosine as a substrate after 30 mins by spectrophotometric method
T2 sequence (whole entry): T1 sequence (O42713 whole entry)

Row | Structure (SMILES) | IC50 [1] [µM] | inhibition [2]
1 | CC(C)CCCCCCC(=O)N/C(=C\c1ccc(O)cc1)C(=O)O | 470 | 
2 | CCCCCCCCCC(=O)N/C(=C\c1ccc(O)cc1)C(N)=O |  | inactive
3 | CCCCCCCCC(=O)N/C(=C\c1ccc(O)cc1)C(=O)O | 280 | 
4 | CCCCCCCCCC(=O)N/C(=C\c1ccc(O)cc1)C(=O)O | 130 | 
5 | CC(C)CCCCCCC(=O)N/C(=C\c1ccc(O)cc1)C(N)=O |  | inactive
